Assay results as given in article PMC4999848 (Toxins, 2016).

What was measured:
[1] = test system: human cell lines (Caco-2, HepG2, T84, A498); assay: cells; type: in vitro ADME; details: read-out: % inhibition of deacetylation of 3/15ADON
[2] = test system: CES in A498 cells; assay: CES activity on pNPA, A498 cells
[3] = test system: CES in S9 Liver; assay: CES activity on pNPA, liver S9 fraction
[4] = test system: CES in S9 Kidney; assay: CES activity on pNPA, kidney S9 fraction
[5] = test system: CES in S9 Intestine; assay: CES activity on pNPA, intestine S9 fraction
[6] = test system: CES in HepG2 cells; assay: CES activity on pNPA, HepG2 cells
[7] = biological target: T1, recombinant human CES1 (Homo sapiens, UniProt P23141); assay: CES activity on pNPA, recombinant CES1
T1 sequence (P23141 18-567): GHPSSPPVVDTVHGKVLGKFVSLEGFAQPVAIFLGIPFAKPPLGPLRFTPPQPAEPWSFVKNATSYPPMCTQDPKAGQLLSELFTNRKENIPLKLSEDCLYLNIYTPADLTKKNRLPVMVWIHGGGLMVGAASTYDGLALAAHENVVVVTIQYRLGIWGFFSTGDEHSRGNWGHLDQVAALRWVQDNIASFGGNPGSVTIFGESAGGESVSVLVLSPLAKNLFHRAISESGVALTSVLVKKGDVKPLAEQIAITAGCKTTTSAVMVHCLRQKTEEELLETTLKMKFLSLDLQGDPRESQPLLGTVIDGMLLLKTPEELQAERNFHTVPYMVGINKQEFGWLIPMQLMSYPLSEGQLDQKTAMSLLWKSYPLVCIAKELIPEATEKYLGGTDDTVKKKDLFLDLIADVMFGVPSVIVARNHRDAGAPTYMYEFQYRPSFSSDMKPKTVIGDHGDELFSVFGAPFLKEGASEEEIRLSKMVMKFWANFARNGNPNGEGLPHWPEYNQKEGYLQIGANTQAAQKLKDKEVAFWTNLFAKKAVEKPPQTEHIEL

[8] = test system: CES in T84 cells; assay: CES activity on pNPA, T84 cells
[9] = test system: CES in Caco-2 cells; assay: CES activity on pNPA, Caco-2 cells
[10] = biological target: T2, recombinant human CES2 (Homo sapiens, UniProt O00748); assay: CES activity on pNPA, recombinant CES2; details: CES2, pNPA 1 mM
T2 sequence (O00748 27-559): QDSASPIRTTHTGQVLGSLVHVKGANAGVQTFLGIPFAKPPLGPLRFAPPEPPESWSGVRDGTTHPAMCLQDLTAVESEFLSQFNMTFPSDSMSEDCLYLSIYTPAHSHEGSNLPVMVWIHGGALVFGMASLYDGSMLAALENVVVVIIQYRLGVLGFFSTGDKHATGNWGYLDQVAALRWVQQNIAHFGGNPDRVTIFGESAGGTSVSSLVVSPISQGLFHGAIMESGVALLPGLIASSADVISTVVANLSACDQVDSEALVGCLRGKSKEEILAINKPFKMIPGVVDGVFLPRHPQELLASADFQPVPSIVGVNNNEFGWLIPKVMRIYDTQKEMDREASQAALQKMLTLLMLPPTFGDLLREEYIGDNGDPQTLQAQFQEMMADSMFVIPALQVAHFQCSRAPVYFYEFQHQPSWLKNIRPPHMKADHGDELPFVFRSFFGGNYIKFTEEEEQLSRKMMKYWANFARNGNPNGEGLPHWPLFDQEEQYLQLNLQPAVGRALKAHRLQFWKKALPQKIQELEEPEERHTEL

## O=C(C(=O)c1ccccc1)c1ccccc1 [benzil]
[1]
  inhibition at 100 µM: 10 to 20%
[2]; A498, benzil 100 μM
  % of Inhibition of pNPA deacetylation: 83 ± 16%
[3]; benzil 100 μM
  % of Inhibition of pNPA deacetylation: 85 ± 14%
[4]; benzil 100 μM
  % of Inhibition of pNPA deacetylation: 88 ± 11%
[5]; benzil 100 μM
  % of Inhibition of pNPA deacetylation: 84 ± 15%
[6]; HepG2, benzil 100 μM
  % of Inhibition of pNPA deacetylation: 87 ± 12%
[7]; read-out: % of Inhibition of pNPA deacetylation
  inhibition at 100 µM: 96 ± 3.3%
[8]; T84, benzil 100 μM
  % of Inhibition of pNPA deacetylation: 85 ± 14%
[9]; Caco-2, benzil 100 μM
  % of Inhibition of pNPA deacetylation: 83 ± 16%

## CC(=O)Oc1ccc([N+](=O)[O-])cc1 [pNPA, para-nitrophenyl acetate]
[2]; A498, pNPA 1 mM, benzil 100 μM
  Specific activity on pNPA, With Benzil: 1.1 ± 0.1 nmol of pNPA hydrolyzed per minute and per mg of protein
[3]; pNPA 1 mM, 37 °C
  Specific activity on pNPA, Without Benzil: 142 ± 4.6 nmol of pNPA hydrolyzed per minute and per mg of protein
[3]; pNPA 1 mM, benzil 100 μM
  Specific activity on pNPA, With Benzil: 21 ± 2.2 nmol of pNPA hydrolyzed per minute and per mg of protein
[4]; pNPA 1 mM, 37 °C
  Specific activity on pNPA, Without Benzil: 69 ± 7.6 nmol of pNPA hydrolyzed per minute and per mg of protein
[4]; pNPA 1 mM, benzil 100 μM
  Specific activity on pNPA, With Benzil: 8.1 ± 1.4 nmol of pNPA hydrolyzed per minute and per mg of protein
[5]; pNPA 1 mM, 37 °C
  Specific activity on pNPA, Without Benzil: 55 ± 9.9 nmol of pNPA hydrolyzed per minute and per mg of protein
[5]; pNPA 1 mM, benzil 100 μM
  Specific activity on pNPA, With Benzil: 8.3 ± 2.7 nmol of pNPA hydrolyzed per minute and per mg of protein
[10]; 37 °C
  Specific activity on pNPA, Without Benzil: 5671 ± 207 nmol of pNPA hydrolyzed per minute and per mg of protein
[10]; benzil 100 μM
  Specific activity on pNPA, With Benzil: 214 ± 43 nmol of pNPA hydrolyzed per minute and per mg of protein
[6]; HepG2, pNPA 1 mM, 37 °C
  Specific activity on pNPA, Without Benzil: 15.7 ± 1.1 nmol of pNPA hydrolyzed per minute and per mg of protein
[6]; HepG2, pNPA 1 mM, benzil 100 μM
  Specific activity on pNPA, With Benzil: 2.1 ± 0.1 nmol of pNPA hydrolyzed per minute and per mg of protein
[7]; CES1, pNPA 1 mM, 37 °C
  Specific activity on pNPA, Without Benzil: 4965 ± 197 nmol of pNPA hydrolyzed per minute and per mg of protein
[7]; CES1, pNPA 1 mM, benzil 100 μM
  Specific activity on pNPA, With Benzil: 167 ± 10 nmol of pNPA hydrolyzed per minute and per mg of protein
[8]; T84, pNPA 1 mM, 37 °C
  Specific activity on pNPA, Without Benzil: 6.6 ± 0.7 nmol of pNPA hydrolyzed per minute and per mg of protein
[8]; T84, pNPA 1 mM, benzil 100 μM
  Specific activity on pNPA, With Benzil: 0.9 ± 0.2 nmol of pNPA hydrolyzed per minute and per mg of protein
[9]; Caco-2, pNPA 1 mM, 37 °C
  Specific activity on pNPA, Without Benzil: 6.2 ± 1.8 nmol of pNPA hydrolyzed per minute and per mg of protein
[9]; Caco-2, pNPA 1 mM, benzil 100 μM
  Specific activity on pNPA, With Benzil: 1.1 ± 0.1 nmol of pNPA hydrolyzed per minute and per mg of protein
